Measurements as given in ChEMBL document CHEMBL4041547, “Novel Potentiators for Vancomycin in the Treatment of Biofilm-Related MRSA Infections via a Mix and Match Approach” (ACS Med Chem Lett, 2017).
Active and inactive are the calls of the source. No cut-off for these calls is given here.

Experiments:
[1] = target: T1, Signal transduction protein TRAP (Staphylococcus aureus (strain Mu50 / ATCC 700699)) (UniProt Q7A2Q4); assay: (§1) Inhibition of methicillin-resistant Staphylococcus aureus Mu50 TRAP assessed as potentiation of vancomycin-induced antibiofilm activity by measuring vancomycin-mediated reduction in colony forming units at 25 uM cotreated with vancomycin for 24 hrs (reference value: 30 +/- 14%); conditions: Staphylococcus aureus subsp. aureus Mu50
T1 sequence (whole entry): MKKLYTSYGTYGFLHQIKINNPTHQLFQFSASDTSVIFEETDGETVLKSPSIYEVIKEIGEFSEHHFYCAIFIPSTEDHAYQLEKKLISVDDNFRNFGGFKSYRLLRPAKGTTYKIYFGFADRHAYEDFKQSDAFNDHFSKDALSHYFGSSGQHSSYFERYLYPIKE

[2] = target: T1, Signal transduction protein TRAP (Staphylococcus aureus (strain Mu50 / ATCC 700699)); assay: as §1, with “pretreated for 4 hrs prior to” for “cotreated with”, “addition measured after 20” for “for 24”; conditions: Staphylococcus aureus subsp. aureus Mu50
Staphylococcus aureus [3] = assay: Growth inhibition of methicillin-resistant Staphylococcus aureus Mu50
Staphylococcus aureus [4] = assay: Antibiofilm activity against methicillin-resistant Staphylococcus aureus Mu50 at 100 uM; assay type: functional
[5] = target: T1, Signal transduction protein TRAP (Staphylococcus aureus (strain Mu50 / ATCC 700699)); assay: Inhibition of methicillin-resistant Staphylococcus aureus Mu50 TRAP assessed as reduction in vancomycin MIC at 100 uM; conditions: Staphylococcus aureus subsp. aureus Mu50
Staphylococcus aureus [6] = assay: Inhibition of methicillin-resistant Staphylococcus aureus JE2 TRAP assessed as reduction in vancomycin MIC at 100 uM
Staphylococcus aureus [7] = assay: Antibiofilm activity against methicillin-resistant Staphylococcus aureus JE2 at 100 uM; assay type: functional
Plasma = assay: Metabolic stability in human plasma by UPLC-MS/MS analysis; assay type: ADME, cell-free
[8] = Drug metabolism assessed as UGT-mediated compound degradation in human liver microsomes at 5 uM using UDPGA as cofactor by UPLC-MS/MS analysis; assay type: ADME
[9] = Drug metabolism assessed as CYP450-mediated compound degradation in human liver microsomes at 5 uM using NADPH as cofactor by UPLC-MS/MS analysis; assay type: ADME

Row | Compound | inhibition [1] [%] | inhibition [2] [%] | MIC (Staphylococcus aureus [3]) [µM] | further results
1 | O=C(NC[C@]1(O)CO[C@H](CNC(=O)c2ccccc2Cl)[C@H]1O)c1cncnc1 | 35 | 36 | > 500 | 
2 | O=C(NC[C@]1(O)CO[C@H](CNC(=O)c2ccccc2Cl)[C@H]1O)Nc1ccccc1 | 58 | 67 | > 500 | 
3 | COc1ccc(C(=O)NC[C@]2(O)CO[C@H](CNC(=O)c3ccccc3Cl)[C@H]2O)cc1 | 43 | 34 | > 500 | 
4 | O=C(NC[C@]1(O)CO[C@H](CN2C(=O)c3ccccc3C2=O)[C@H]1O)c1ccnnc1 |  |  |  | Activity (Staphylococcus aureus [4]): inactive; inhibition [5]: inactive; inhibition (Staphylococcus aureus [6]): inactive; Activity (Staphylococcus aureus [7]): inactive
5 | O=C(NC[C@]1(O)CO[C@H](CNC(=O)c2ccccc2Cl)[C@H]1O)c1ccoc1 | 50 | 58 | > 500 | 
6 | O=C(NC[C@H]1OC[C@@](O)(CNS(=O)(=O)c2ccccc2)[C@@H]1O)c1ccccc1Cl | 44 | 65 | > 500 | 
7 | O=C(OC[C@H]1OC(O)[C@@](O)(COC(=O)c2cc(O)c(O)c(O)c2)[C@@H]1O)c1cc(O)c(O)c(O)c1 (some centres undefined) [HAMAMELITANNIN] | 31 | 35 | > 500 | 
8 | O=C(NC[C@]1(O)CO[C@H](CNC(=O)c2ccccc2Cl)[C@H]1O)c1ccc(Cl)cc1 | 43 | 39 | > 500 | 
9 | O=C(NC[C@]1(O)CO[C@H](CNC(=O)c2ccccc2Cl)[C@H]1O)c1ccccc1 | 80 | 85 | > 500 | 
10 | O=C(NC[C@H]1OC[C@@](O)(CNC(=O)C2CCCCC2)[C@@H]1O)c1ccccc1Cl | 55 | 85 | > 500 | 
11 | O=C(NC[C@]1(O)CO[C@H](CN2C(=O)c3ccccc3C2=O)[C@H]1O)c1ccccc1Cl |  |  |  | Stability (Plasma): Stable; Activity (Staphylococcus aureus [4]): inactive; inhibition [5]: inactive; Stability [8]: Stable; Stability [9]: Unstable; inhibition (Staphylococcus aureus [6]): inactive; Activity (Staphylococcus aureus [7]): inactive
12 | [N-]=[N+]=NC[C@]1(O)CO[C@H](CNC(=O)c2ccccc2Cl)[C@H]1O | 88 | 87 | > 500 | 
13 | O=C(NC[C@H]1OC[C@@](O)(CNCc2ccccc2)[C@@H]1O)c1ccccc1Cl | 89 | 94 | > 500 | 
14 | CC(=O)NC[C@]1(O)CO[C@H](CNC(=O)c2ccccc2Cl)[C@H]1O | 82 | 70 | > 500 | 
15 | O=C(NC[C@H]1OC[C@@](O)(CN2Cc3ccccc3C2=O)[C@@H]1O)c1ccccc1Cl | 73 | 92 | > 500 | 
16 | O=C(CCc1ccccc1)NC[C@]1(O)CO[C@H](CNC(=O)c2ccccc2Cl)[C@H]1O | 18 | 35 | > 500 | 
17 | O=C(NC[C@]1(O)CO[C@H](CNC(=O)c2ccccc2Cl)[C@H]1O)c1ccccc1F | 56 | 38 | > 500 | 
18 | CN[C@H](CC(C)C)C(=O)N[C@H]1C(=O)N[C@@H](CC(N)=O)C(=O)N[C@H]2C(=O)N[C@H]3C(=O)N[C@H](C(=O)N[C@H](C(=O)O)c4cc(O)cc(O)c4-c4cc3ccc4O)[C@H](O)c3ccc(c(Cl)c3)Oc3cc2cc(c3O[C@@H]2O[C@H](CO)[C@@H](O)[C@H](O)[C@H]2O[C@H]2C[C@](C)(N)[C@H](O)[C@H](C)O2)Oc2ccc(cc2Cl)[C@H]1O | 30 | 30 |  | 
19 | Cc1ccc(C(=O)NC[C@]2(O)CO[C@H](CNC(=O)c3ccccc3Cl)[C@H]2O)cc1 | 58 | 48 | > 500 | 
20 | O=C(NC[C@H]1OC[C@H](O)[C@@H]1O)c1ccccc1Cl | 81 | 80 | > 500 | 
